Experimental data published in PubChem BioAssay (NCI).
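48-hour exposure; five concentrations; linearly interpolated endpoints. At the TGI there is no net growth.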

Columns and labels:
Test in all cases: inhibition of tumour cell growth, NCI panel, 48 h
OVCAR-5 ovarian = test system: OVCAR-5 ovarian
TK-10 renal = test system: TK-10 renal
SF-539 CNS = test system: SF-539 CNS
CAKI-1 renal = test system: CAKI-1 renal
SK-MEL-28 melanoma = test system: SK-MEL-28 melanoma
HOP-62 NSCLC = test system: HOP-62 NSCLC
SNB-75 CNS = test system: SNB-75 CNS
DMS 114 small cell lung = test system: DMS 114 small cell lung
SF-295 CNS = test system: SF-295 CNS
MOLT-4 leukemia = test system: MOLT-4 leukemia
HCC-2998 colon = test system: HCC-2998 colon
KM20L2 colon = test system: KM20L2 colon
SF-268 CNS = test system: SF-268 CNS
CCRF-CEM leukemia = test system: CCRF-CEM leukemia
DLD-1 colon = test system: DLD-1 colon
SK-OV-3 ovarian = test system: SK-OV-3 ovarian
EKVX NSCLC = test system: EKVX NSCLC
KM12 colon = test system: KM12 colon
RXF 393 renal = test system: RXF 393 renal
M19-MEL melanoma = test system: M19-MEL melanoma
HOP-18 NSCLC = test system: HOP-18 NSCLC
HOP-92 NSCLC = test system: HOP-92 NSCLC
IGROV1 ovarian = test system: IGROV1 ovarian
A498 renal = test system: A498 renal
ACHN renal = test system: ACHN renal
HCT-15 colon = test system: HCT-15 colon
MALME-3M melanoma = test system: MALME-3M melanoma
OVCAR-3 ovarian = test system: OVCAR-3 ovarian
UACC-62 melanoma = test system: UACC-62 melanoma
NCI-H522 lung = test system: NCI-H522 lung
LXFL 529 NSCLC = test system: LXFL 529 NSCLC
SK-MEL-2 melanoma = test system: SK-MEL-2 melanoma
SN12C renal = test system: SN12C renal
SR leukemia = test system: SR leukemia
UO-31 renal = test system: UO-31 renal
NCI-H460 lung = test system: NCI-H460 lung
HCT-116 colon = test system: HCT-116 colon
K-562 leukemia = test system: K-562 leukemia
M14 melanoma = test system: M14 melanoma
SW-620 colon = test system: SW-620 colon
786-0 renal = test system: 786-0 renal
LOX IMVI melanoma = test system: LOX IMVI melanoma
A549 NSCLC = test system: A549 NSCLC
RPMI-8226 leukemia = test system: RPMI-8226 leukemia
SNB-78 CNS = test system: SNB-78 CNS
OVCAR-8 ovarian = test system: OVCAR-8 ovarian
HT29 colon = test system: HT29 colon
DMS 273 small cell lung = test system: DMS 273 small cell lung
RXF-631 renal = test system: RXF-631 renal
HL-60(TB) leukemia = test system: HL-60(TB) leukemia
NCI-H226 lung = test system: NCI-H226 lung
SNB-19 CNS = test system: SNB-19 CNS
U251 CNS = test system: U251 CNS
SK-MEL-5 melanoma = test system: SK-MEL-5 melanoma
OVCAR-4 ovarian = test system: OVCAR-4 ovarian
NCI-H23 lung = test system: NCI-H23 lung
UACC-257 melanoma = test system: UACC-257 melanoma
COLO 205 colon = test system: COLO 205 colon

## Cc1ccc(-c2cc(-c3ccco3)c(C#N)c(=O)n2C2OC(OC(=O)c3ccccc3)C(OC(=O)c3ccccc3)C2OC(=O)c2ccccc2)cc1 (centres undefined)
OVCAR-5 ovarian
  TGI: > 100 µM
TK-10 renal
  TGI: > 100 µM
SF-539 CNS
  TGI: > 100 µM
CAKI-1 renal
  TGI: > 100 µM
SK-MEL-28 melanoma
  TGI: > 100 µM
HOP-62 NSCLC
  TGI: > 100 µM
SNB-75 CNS
  TGI: > 100 µM
DMS 114 small cell lung
  TGI: > 100 µM
SF-295 CNS
  TGI: > 100 µM
MOLT-4 leukemia
  TGI: > 100 µM
HCC-2998 colon
  TGI: > 100 µM
KM20L2 colon
  TGI: > 100 µM
SF-268 CNS
  TGI: > 100 µM
CCRF-CEM leukemia
  TGI: > 100 µM
DLD-1 colon
  TGI: > 100 µM
SK-OV-3 ovarian
  TGI: > 100 µM
EKVX NSCLC
  TGI: > 100 µM
KM12 colon
  TGI: > 100 µM
RXF 393 renal
  TGI: 88.4 µM
M19-MEL melanoma
  TGI: > 100 µM
HOP-18 NSCLC
  TGI: > 100 µM
HOP-92 NSCLC
  TGI: 59.4 µM
IGROV1 ovarian
  TGI: > 100 µM
A498 renal
  TGI: > 100 µM
ACHN renal
  TGI: > 100 µM
HCT-15 colon
  TGI: > 100 µM
MALME-3M melanoma
  TGI: > 100 µM
OVCAR-3 ovarian
  TGI: > 100 µM
UACC-62 melanoma
  TGI: > 100 µM
NCI-H522 lung
  TGI: > 100 µM
LXFL 529 NSCLC
  TGI: > 100 µM
SK-MEL-2 melanoma
  TGI: > 100 µM
SN12C renal
  TGI: > 100 µM
SR leukemia
  TGI: > 100 µM
UO-31 renal
  TGI: > 100 µM
NCI-H460 lung
  TGI: > 100 µM
HCT-116 colon
  TGI: > 100 µM
K-562 leukemia
  TGI: > 100 µM
M14 melanoma
  TGI: > 100 µM
SW-620 colon
  TGI: > 100 µM
786-0 renal
  TGI: > 100 µM
LOX IMVI melanoma
  TGI: > 100 µM
A549 NSCLC
  TGI: > 100 µM
RPMI-8226 leukemia
  TGI: > 100 µM
SNB-78 CNS
  TGI: > 100 µM
OVCAR-8 ovarian
  TGI: > 100 µM
HT29 colon
  TGI: > 100 µM
DMS 273 small cell lung
  TGI: > 100 µM
RXF-631 renal
  TGI: > 100 µM

## C/C=C/C=C/C=C/C=C/C(=O)O
OVCAR-5 ovarian
  TGI: > 100 µM
HL-60(TB) leukemia
  TGI: > 100 µM
SF-539 CNS
  TGI: > 100 µM
CAKI-1 renal
  TGI: > 100 µM
SK-MEL-28 melanoma
  TGI: > 100 µM
HOP-62 NSCLC
  TGI: > 100 µM
SNB-75 CNS
  TGI: > 100 µM
DMS 114 small cell lung
  TGI: > 100 µM
NCI-H226 lung
  TGI: > 100 µM
SF-295 CNS
  TGI: > 100 µM
SNB-19 CNS
  TGI: > 100 µM
MOLT-4 leukemia
  TGI: > 100 µM
HCC-2998 colon
  TGI: > 100 µM
KM20L2 colon
  TGI: > 100 µM
SF-268 CNS
  TGI: > 100 µM
CCRF-CEM leukemia
  TGI: > 100 µM
DLD-1 colon
  TGI: > 100 µM
SK-OV-3 ovarian
  TGI: > 100 µM
EKVX NSCLC
  TGI: > 100 µM
KM12 colon
  TGI: > 100 µM
U251 CNS
  TGI: > 100 µM
RXF 393 renal
  TGI: > 100 µM
SK-MEL-5 melanoma
  TGI: > 100 µM
OVCAR-4 ovarian
  TGI: > 100 µM
HOP-18 NSCLC
  TGI: > 100 µM
IGROV1 ovarian
  TGI: > 100 µM
A498 renal
  TGI: > 100 µM
NCI-H23 lung
  TGI: > 100 µM
ACHN renal
  TGI: > 100 µM
HCT-15 colon
  TGI: > 100 µM
MALME-3M melanoma
  TGI: > 100 µM
OVCAR-3 ovarian
  TGI: > 100 µM
UACC-62 melanoma
  TGI: > 100 µM
NCI-H522 lung
  TGI: > 100 µM
LXFL 529 NSCLC
  TGI: > 100 µM
SK-MEL-2 melanoma
  TGI: > 100 µM
SN12C renal
  TGI: > 100 µM
SR leukemia
  TGI: > 100 µM
UO-31 renal
  TGI: > 100 µM
NCI-H460 lung
  TGI: > 100 µM
UACC-257 melanoma
  TGI: > 100 µM
HCT-116 colon
  TGI: > 100 µM
K-562 leukemia
  TGI: > 100 µM
M14 melanoma
  TGI: > 100 µM
SW-620 colon
  TGI: > 100 µM
786-0 renal
  TGI: > 100 µM
LOX IMVI melanoma
  TGI: > 100 µM
A549 NSCLC
  TGI: > 100 µM
COLO 205 colon
  TGI: > 100 µM
RPMI-8226 leukemia
  TGI: > 100 µM
SNB-78 CNS
  TGI: > 100 µM
OVCAR-8 ovarian
  TGI: > 100 µM
HT29 colon
  TGI: > 100 µM
DMS 273 small cell lung
  TGI: > 100 µM
RXF-631 renal
  TGI: > 100 µM
